{"source": "patent US12285426B2", "about": "“Combination serotonin specific reuptake inhibitor and serotonin 1A receptor partial agonist for reducing L-DOPA-induced dyskinesia” (The Research Foundation for The State University of new York, priority 2018, dated 2025)", "key": {"DRN 5-HT neurons": {"tested_on": "DRN 5-HT neurons", "experiment": "Example 3: in vivo single-unit recording of DRN 5-HT neurons", "parameters": "species or system rat", "conditions": "8-OH-DPAT 1 μg/kg i.v.; WAY-100635 100 μg/kg i.v.", "description": "Burr holes (˜1 mm in diameter) were drilled in the skull overlying the DRN of non-lesioned rats. Prior to experimentation all animals were anesthetized with urethane (1.5 g/kgi.p.) and placed in a stereotaxic apparatus. Bipolar stimulating/recording electrodes were implanted in the frontal cortex and DRN on the right side using a micromanipulator (coordinates from Bregma: AP: 3.2 mm; ML: 0.8 mm lateral; DV: 4.4 mm ventral (frontal cortex) or AP: 7.8 mm; ML 3.1 mm; DV: 7.5 mm with the manipulator angled 30 degrees toward Bregma) as previously described [Chakroborty 2017].\nElectrophysiology: Recording microelectrodes were manufactured from 2.0 mm OD borosilicate glass capillary tubing and filled with sodium chloride (2M) solution. […] Temperature was monitored using a rectal probe and maintained at 37 C.° using a heating pad (VI-20F, Fintronics Inc., Orange, CT). […] Once isolated, recordings consisted of basal (pre-drug), saline vehicle, and drug-treatment-(see below) induced changes in spike activity recorded in a series of 3 min duration epochs.\nAll compounds and physiological 0.9% saline were prepared daily and administered intravenously (i.v.) through the lateral tail vein to enable rapid examination of potential acute effects of vehicle or drug on DRN neuronal activity. […] DRN 5-HT neuron activity was recorded prior to and immediately following drug administration as described above."}, "[1]": {"biological_target": "T1, 5-HT1A receptor expressed in SF9 cells (Homo sapiens, UniProt P08908)", "T1 construct": "expressed in transfected cells; host or cells: SF9 cells", "T1 sequence (P08908 1-422)": "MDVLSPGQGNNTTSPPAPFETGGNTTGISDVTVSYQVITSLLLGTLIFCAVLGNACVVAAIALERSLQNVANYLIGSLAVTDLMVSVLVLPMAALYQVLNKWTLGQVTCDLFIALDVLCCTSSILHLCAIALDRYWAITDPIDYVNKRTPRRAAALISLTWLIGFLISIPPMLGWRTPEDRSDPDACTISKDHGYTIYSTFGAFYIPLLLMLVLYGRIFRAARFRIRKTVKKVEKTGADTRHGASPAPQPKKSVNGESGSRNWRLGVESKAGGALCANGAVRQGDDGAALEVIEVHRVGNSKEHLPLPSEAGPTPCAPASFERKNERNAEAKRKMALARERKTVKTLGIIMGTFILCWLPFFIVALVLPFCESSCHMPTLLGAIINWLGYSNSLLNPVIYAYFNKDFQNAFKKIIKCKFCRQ", "conditions": "cited from earlier work"}, "[2]": {"tested_on": "6-OHDA-lesioned rats, L-DOPA-induced dyskinesias", "experiment": "Example 2: LIDs scoring in unilateral 6-OHDA-lesioned rats", "format": "in vivo, rat", "conditions": "vilazodone 10 mg/kg or escitalopram 12.5 mg/kg + L-DOPA 5 mg/kg, 2 weeks", "method": "6-OHDA-induced dopaminergic lesions: Adult male Sprague-Dawley rats were randomly assigned to groups receiving either a 6-OHDA or sham lesion. […] [[…] 2019]. […] Rats were treated for 5 consecutive days/week (Mon-Fri), for 2 weeks. […] All rats were evaluated three times per week for the presence of L-DOPA-induced dyskinesias (LIDs) (Wed-Fri) and once for the stepping test (Tue). […] Scores were given over 1 min epochs and classified as axial, limb, orolingual and locomotive. […] The severity of each LID was scored using a standard scale. Each dyskinetic behavior was given an intensity and frequency score, which were then multiplied. The average sum of the products of each LID was determined in each animal."}, "[3]": {"tested_on": "6-OHDA-lesioned rats, forelimb akinesia", "experiment": "Example 2: stepping test", "format": "in vivo, rat", "conditions": "60 minutes post L-DOPA"}, "[4]": {"tested_on": "6-OHDA-lesioned rats, forelimb akinesia", "experiment": "Experiment 2: forepaw adjusting steps (FAS)", "format": "in vivo, rat", "conditions": "LD 6 mg/kg alone or with VZD", "description": "(§1) Forepaw adjusting steps (FAS): The FAS test is a measure of forelimb akinesia performed according to previous protocols (Bishop et al., 2012; Chang et al., 1999). Data are presented as mean percent intact stepping where the sum of the total steps with the lesioned forepaw was divided by the total steps with the unlesioned forepaw multiplied by 100. Lower percent intact scores indicate greater forelimb akinesia. Prior to baseline, rats received 2 acclimation periods. On-treatment FAS was performed 60 min post-L-DOPA."}, "[5]": {"tested_on": "6-OHDA-lesioned rats, forelimb akinesia", "experiment": "Experiment 1: forepaw adjusting steps (FAS)", "format": "in vivo, rat", "conditions": "LD 6 mg/kg alone or with VZD 10/20 mg/kg", "description": "as §1, with “Conti et al., 2014). […] Forepaw” for “Forepaw”"}, "[6]": {"tested_on": "striatal c-Fos, PPD, PPE, PPT, 5-HT1AR mRNA", "experiment": "Experiment 2: real-time RT-PCR of striatal gene expression"}, "[7]": {"tested_on": "6-OHDA-lesioned rats, L-DOPA-induced dyskinesia", "experiment": "Experiment 1: AIMs, established LID in L-DOPA-primed hemi-parkinsonian rats", "format": "in vivo, rat", "conditions": "LD 6 mg/kg s.c. vs L-DOPA vehicle"}, "[8]": {"tested_on": "striatum and DRN monoamines and metabolites", "experiment": "Experiment 1: HPLC of striatal and dorsal raphe tissue monoamines", "format": "in vivo, rat"}, "[9]": {"tested_on": "lesion-induced motor deficits", "experiment": "FIG. 23D: % intact stepping", "format": "in vivo", "conditions": "L-DOPA alone or with AMA 40 mg/kg and/or VZD 2.5 mg/kg"}, "[10]": {"conditions": "in vivo; cited from earlier work"}, "[11]": {"tested_on": "L-DOPA-primed 6-OHDA-lesioned rats; 5-HT1BR", "experiment": "Experiment 3: AIMs with 5-HT1BR antagonist NAS-181", "format": "in vivo, rat", "conditions": "VZD 10 mg/kg, NAS-181 3.0 mg/kg, LD 6 mg/kg s.c."}, "[12]": {"tested_on": "L-DOPA-primed 6-OHDA-lesioned rats; 5-HT1AR", "conditions": "VZD 10 mg/kg, WAY 0.5 mg/kg, LD 6 mg/kg s.c."}, "[13]": {"conditions": "Dorsal Raphe Nucleus, VZD(0)+LD(6) mg/kg s.c."}}, "data": [{"compound": "Br.CCCN(CCC)C1CCc2cccc(O)c2C1", "note": "(stereo not drawn) [8-OH-DPAT, 8-hydroxy-2-(dipropylamino) tetralin hydrobromide]", "values": [{"measurement": "spontaneous firing of DRN 5-HT neuron", "setting": "DRN 5-HT neurons", "value": "suppressed the spontaneous firing of a DRN neuron"}, {"measurement": "increase of [35S]GTPyS binding compared to vehicle", "setting": "[1]", "value": "eightfold"}]}, {"compound": "CN(C)CCC[C@@]1(c2ccc(F)cc2)OCc2cc(C#N)ccc21", "note": "[Escitalopram]", "values": [{"measurement": "LIDs severity", "setting": "[2]", "value": "significantly reduced LIDs severity"}, {"measurement": "forelimb akinesia / L-DOPA therapeutic (prokinetic) efficacy", "setting": "[3]", "value": "affected L-DOPA therapeutic efficacy"}]}, {"compound": "N[C@@H](Cc1ccc(O)c(O)c1)C(=O)O", "note": "[L-DOPA, L-3,4-dihydroxyphenylalanine]", "values": [{"measurement": "FAS vs baseline", "setting": "[4]", "value": "significant increases in motor ability on each test day"}, {"measurement": "FAS motor performance vs baseline", "setting": "[5]", "value": "significant improvements on motor performance over baseline"}, {"measurement": "striatal PPE mRNA", "setting": "[6]; lesioned striata, LD 6 mg/kg, VZD 20 mg/kg, day 23", "value": "significantly increased PPE in the lesioned striata"}, {"measurement": "striatal PPD mRNA", "setting": "[6]; lesioned striata, LD 6 mg/kg, VZD 10/20 mg/kg, day 23", "value": "significantly increased PPD in the lesioned striata"}, {"measurement": "striatal c-Fos mRNA", "setting": "[6]; lesioned striata, LD 6 mg/kg, VZD 10 or 20 mg/kg, day 23", "value": "potentiated c-Fos in lesioned striata"}, {"measurement": "striatal PPT mRNA", "setting": "[6]; rat, in vivo", "value": "did not increase striatal PPT"}, {"measurement": "LID during 14 days of priming", "setting": "[7]", "value": "significantly greater LID"}, {"measurement": "5-HIAA", "setting": "[8]; [13]", "value": 2778, "unit": "pg/mg wet tissue weight"}, {"measurement": "5-HT", "setting": "[8]; [13]", "value": 5457, "unit": "pg/mg wet tissue weight"}, {"measurement": "5-HT Turnover", "setting": "[8]; [13]", "value": 0.57}, {"measurement": "DA", "setting": "[8]; [13]", "value": 112, "unit": "pg/mg wet tissue weight"}, {"measurement": "DA Turnover", "setting": "[8]; [13]", "value": 10.3}, {"measurement": "DOPAC", "setting": "[8]; [13]", "value": 1114, "unit": "pg/mg wet tissue weight"}, {"measurement": "DRN DA, DOPAC and DA Turnover", "setting": "[8]; LD 6 mg/kg", "value": "significantly increased DRN levels of DA, DOPAC and DA Turnover"}, {"measurement": "% intact stepping", "setting": "[9]", "value": "reversed lesion-induced motor deficits"}, {"measurement": "fraction crossing the blood-brain barrier", "setting": "[10]", "value": "5-10%"}]}, {"compound": "C1=C(CN2CCOCC2)COc2c1cccc2OC[C@H]1CNCCO1.CS(=O)(=O)O", "note": "[NAS-181, (R)-(+)-2-(3-morpholinomethyl-2H-chromen-8-yl) oxymethyl-morpholine methane-sulfonate]", "values": [{"measurement": "ALO AIMs", "setting": "[11]", "value": "did not significantly alter AIMs or their reduction by Vilazodone"}]}, {"compound": "COc1ccccc1N1CCN(CCN(C(=O)C2CCCCC2)c2ccccn2)CC1.O=C(O)/C=C\\C(=O)O", "note": "[WAY100635, N-[2-[4(2-Methoxyphenyl)-1-piperazinyl]ethyl]-N-2-pyridinylcyclohexanecarboxamide maleate salt]", "values": [{"measurement": "spontaneous firing of DRN 5-HT neuron", "setting": "DRN 5-HT neurons", "value": "return to baseline firing"}, {"measurement": "LIDs severity", "setting": "[2]", "value": "reverses the beneficial effects of vilazodone on LIDs"}, {"measurement": "summed ALO AIMs", "setting": "[12]", "value": "partially reversed the anti-dyskinetic efficacy of Vilazodone"}]}]}
